{"source": "ChEMBL document CHEMBL3046257", "about": "“Response of sweet maize (Zea mays L.) hybrids to halosulfuron” (Crop Prot, 2008)", "assay_type_in_all_cases": "organism-based", "key": {"Zea mays [1]": {"tested_on": "Zea mays", "assay": "Toxicity in Zea mays GH2684 (maize) assessed as plant height at 25 g ai/ha applied shortly post-emergence at three to five-leaf stage using backpack sprayer measured after 21 days (Rvb =73 cm)", "conditions": "in vivo, other, 504 h"}, "Zea mays [2]": {"tested_on": "Zea mays", "assay": "Toxicity in Zea mays GH2684 (maize) assessed as cob size at 25 g ai/ha applied shortly post-emergence at three to five-leaf stage using backpack sprayer (reference value: 340 g)", "conditions": "in vivo, other"}, "Zea mays [3]": {"tested_on": "Zea mays", "assay": "Toxicity in Zea mays GH2547 (maize) assessed as marketable yield at 50 g ai/ha applied shortly post-emergence at three to five-leaf stage using backpack sprayer (reference value: 16.7 T/ha )", "conditions": "in vivo, other"}, "Zea mays [4]": {"tested_on": "Zea mays", "assay": "Toxicity in Zea mays GH2298 (maize) assessed as visible injury at 25 g ai/ha applied shortly post-emergence at three to five-leaf stage using backpack sprayer measured after 28 days", "conditions": "in vivo, other, 672 h"}, "Zea mays [5]": {"tested_on": "Zea mays", "assay": "Toxicity in Zea mays GG214 (maize) assessed as visible injury at 50 g ai/ha applied shortly post-emergence at three to five-leaf stage using backpack sprayer measured after 7 days", "conditions": "in vivo, other, 168 h"}, "Zea mays [6]": {"tested_on": "Zea mays", "assay": "Toxicity in Zea mays GSS9299 (maize) assessed as cob size at 25 g ai/ha applied shortly post-emergence at three to five-leaf stage using backpack sprayer (reference value: 292 g)", "conditions": "in vivo, other"}, "Zea mays [7]": {"tested_on": "Zea mays", "assay": "Toxicity in Zea mays GH2684 (maize) assessed as visible injury at 50 g ai/ha applied shortly post-emergence at three to five-leaf stage using backpack sprayer measured after 14 days", "conditions": "in vivo, other, 336 h"}, "Zea mays [8]": {"tested_on": "Zea mays", "assay": "Toxicity in Zea mays GG446 (maize) assessed as visible injury at 50 g ai/ha applied shortly post-emergence at three to five-leaf stage using backpack sprayer measured after 7 days", "conditions": "in vivo, other, 168 h"}, "Zea mays [9]": {"tested_on": "Zea mays", "assay": "Toxicity in Zea mays GG446 (maize) assessed as cob size at 50 g ai/ha applied shortly post-emergence at three to five-leaf stage using backpack sprayer (reference value: 379 g)", "conditions": "in vivo, other"}, "Zea mays [10]": {"tested_on": "Zea mays", "assay": "Toxicity in Zea mays GG214 (maize) assessed as plant height at 50 g ai/ha applied shortly post-emergence at three to five-leaf stage using backpack sprayer measured after 21 days (Rvb =81 cm)", "conditions": "in vivo, other, 504 h"}, "Zea mays [11]": {"tested_on": "Zea mays", "assay": "Toxicity in Zea mays GH2547 (maize) assessed as visible injury at 50 g ai/ha applied shortly post-emergence at three to five-leaf stage using backpack sprayer measured after 28 days", "conditions": "in vivo, other, 672 h"}, "Zea mays [12]": {"tested_on": "Zea mays", "assay": "Toxicity in Zea mays Empire (maize) assessed as visible injury at 50 g ai/ha applied shortly post-emergence at three to five-leaf stage using backpack sprayer measured after 28 days", "conditions": "in vivo, other, 672 h"}, "Zea mays [13]": {"tested_on": "Zea mays", "assay": "Toxicity in Zea mays GSS9299 (maize) assessed as marketable yield at 50 g ai/ha applied shortly post-emergence at three to five-leaf stage using backpack sprayer (reference value: 13.2 T/ha )", "conditions": "in vivo, other"}, "Zea mays [14]": {"tested_on": "Zea mays", "assay": "Toxicity in Zea mays GG446 (maize) assessed as marketable yield at 50 g ai/ha applied shortly post-emergence at three to five-leaf stage using backpack sprayer (reference value: 20.0 T/ha )", "conditions": "in vivo, other"}, "Zea mays [15]": {"tested_on": "Zea mays", "assay": "Toxicity in Zea mays GH2547 (maize) assessed as cob size at 25 g ai/ha applied shortly post-emergence at three to five-leaf stage using backpack sprayer (reference value: 315 g)", "conditions": "in vivo, other"}, "Zea mays [16]": {"tested_on": "Zea mays", "assay": "Toxicity in Zea mays GSS9299 (maize) assessed as visible injury at 50 g ai/ha applied shortly post-emergence at three to five-leaf stage using backpack sprayer measured after 7 days", "conditions": "in vivo, other, 168 h"}, "Zea mays [17]": {"tested_on": "Zea mays", "assay": "Toxicity in Zea mays GG214 (maize) assessed as visible injury at 25 g ai/ha applied shortly post-emergence at three to five-leaf stage using backpack sprayer measured after 14 days", "conditions": "in vivo, other, 336 h"}, "Zea mays [18]": {"tested_on": "Zea mays", "assay": "Toxicity in Zea mays GH2547 (maize) assessed as plant height at 50 g ai/ha applied shortly post-emergence at three to five-leaf stage using backpack sprayer measured after 21 days (Rvb =80 cm)", "conditions": "in vivo, other, 504 h"}, "Zea mays [19]": {"tested_on": "Zea mays", "assay": "Toxicity in Zea mays Empire (maize) assessed as plant height at 50 g ai/ha applied shortly post-emergence at three to five-leaf stage using backpack sprayer measured after 21 days (Rvb =73 cm)", "conditions": "in vivo, other, 504 h"}, "Zea mays [20]": {"tested_on": "Zea mays", "assay": "Toxicity in Zea mays GH2547 (maize) assessed as visible injury at 50 g ai/ha applied shortly post-emergence at three to five-leaf stage using backpack sprayer measured after 7 days", "conditions": "in vivo, other, 168 h"}, "Zea mays [21]": {"tested_on": "Zea mays", "assay": "Toxicity in Zea mays GH2041 (maize) assessed as marketable yield at 50 g ai/ha applied shortly post-emergence at three to five-leaf stage using backpack sprayer (reference value: 12.2 T/ha )", "conditions": "in vivo, other"}, "Zea mays [22]": {"tested_on": "Zea mays", "assay": "Toxicity in Zea mays GSS9299 (maize) assessed as visible injury at 50 g ai/ha applied shortly post-emergence at three to five-leaf stage using backpack sprayer measured after 14 days", "conditions": "in vivo, other, 336 h"}, "Zea mays [23]": {"tested_on": "Zea mays", "assay": "Toxicity in Zea mays Empire (maize) assessed as visible injury at 25 g ai/ha applied shortly post-emergence at three to five-leaf stage using backpack sprayer measured after 7 days", "conditions": "in vivo, other, 168 h"}, "Zea mays [24]": {"tested_on": "Zea mays", "assay": "Toxicity in Zea mays GH2298 (maize) assessed as cob size at 50 g ai/ha applied shortly post-emergence at three to five-leaf stage using backpack sprayer (reference value: 307 g)", "conditions": "in vivo, other"}, "Zea mays [25]": {"tested_on": "Zea mays", "assay": "Toxicity in Zea mays GH2684 (maize)assessed as visible injury at 25 g ai/ha applied shortly post-emergence at three to five-leaf stage using backpack sprayer measured after 14 days", "conditions": "in vivo, other, 336 h"}, "Zea mays [26]": {"tested_on": "Zea mays", "assay": "Toxicity in Zea mays GH2041 (maize) assessed as plant height at 50 g ai/ha applied shortly post-emergence at three to five-leaf stage using backpack sprayer measured after 21 days (Rvb =80 cm)", "conditions": "in vivo, other, 504 h"}, "Zea mays [27]": {"tested_on": "Zea mays", "assay": "Toxicity in Zea mays GH2041 (maize) assessed as visible injury at 50 g ai/ha applied shortly post-emergence at three to five-leaf stage using backpack sprayer measured after 28 days", "conditions": "in vivo, other, 672 h"}, "Zea mays [28]": {"tested_on": "Zea mays", "assay": "Toxicity in Zea mays GG214 (maize) assessed as plant height at 25 g ai/ha applied shortly post-emergence at three to five-leaf stage using backpack sprayer measured after 21 days (Rvb =81 cm)", "conditions": "in vivo, other, 504 h"}, "Zea mays [29]": {"tested_on": "Zea mays", "assay": "Toxicity in Zea mays GG446 (maize) assessed as plant height at 50 g ai/ha applied shortly post-emergence at three to five-leaf stage using backpack sprayer measured after 21 days (reference value: 85 cm)", "conditions": "in vivo, other, 504 h"}, "Zea mays [30]": {"tested_on": "Zea mays", "assay": "Toxicity in Zea mays GG214 (maize) assessed as visible injury at 50 g ai/ha applied shortly post-emergence at three to five-leaf stage using backpack sprayer measured after 14 days", "conditions": "in vivo, other, 336 h"}}, "data": [{"smiles": "COc1cc(OC)nc(NC(=O)NS(=O)(=O)c2c(C(=O)O)c(Cl)nn2C)n1", "note": "[HALOSULFURON]", "values": [{"measurement": "Activity", "setting": "Zea mays [1]", "result": 76, "unit": "cm"}, {"measurement": "Activity", "setting": "Zea mays [2]", "result": 316, "unit": "g"}, {"measurement": "Crop_yield", "setting": "Zea mays [3]", "result": 15.7, "unit": "tons/ha"}, {"measurement": "Activity", "setting": "Zea mays [4]", "result": 0, "unit": "%"}, {"measurement": "Activity", "setting": "Zea mays [5]", "result": 3, "unit": "%"}, {"measurement": "Activity", "setting": "Zea mays [6]", "result": 301, "unit": "g"}, {"measurement": "Activity", "setting": "Zea mays [7]", "result": 5, "unit": "%"}, {"measurement": "Activity", "setting": "Zea mays [8]", "result": 0, "unit": "%"}, {"measurement": "Activity", "setting": "Zea mays [9]", "result": 387, "unit": "g"}, {"measurement": "Activity", "setting": "Zea mays [10]", "result": 75, "unit": "cm"}, {"measurement": "Activity", "setting": "Zea mays [11]", "result": 0, "unit": "%"}, {"measurement": "Activity", "setting": "Zea mays [12]", "result": 1, "unit": "%"}, {"measurement": "Crop_yield", "setting": "Zea mays [13]", "result": 12.8, "unit": "tons/ha"}, {"measurement": "Crop_yield", "setting": "Zea mays [14]", "result": 19.6, "unit": "tons/ha"}, {"measurement": "Activity", "setting": "Zea mays [15]", "result": 310, "unit": "g"}, {"measurement": "Activity", "setting": "Zea mays [16]", "result": 2, "unit": "%"}, {"measurement": "Activity", "setting": "Zea mays [17]", "result": 0, "unit": "%"}, {"measurement": "Activity", "setting": "Zea mays [18]", "result": 79, "unit": "cm"}, {"measurement": "Activity", "setting": "Zea mays [19]", "result": 69, "unit": "cm"}, {"measurement": "Activity", "setting": "Zea mays [20]", "result": 2, "unit": "%"}, {"measurement": "Crop_yield", "setting": "Zea mays [21]", "result": 11.3, "unit": "tons/ha"}, {"measurement": "Activity", "setting": "Zea mays [22]", "result": 2, "unit": "%"}, {"measurement": "Activity", "setting": "Zea mays [23]", "result": 4, "unit": "%"}, {"measurement": "Activity", "setting": "Zea mays [24]", "result": 308, "unit": "g"}, {"measurement": "Activity", "setting": "Zea mays [25]", "result": 3, "unit": "%"}, {"measurement": "Activity", "setting": "Zea mays [26]", "result": 77, "unit": "cm"}, {"measurement": "Activity", "setting": "Zea mays [27]", "result": 0, "unit": "%"}, {"measurement": "Activity", "setting": "Zea mays [28]", "result": 77, "unit": "cm"}, {"measurement": "Activity", "setting": "Zea mays [29]", "result": 82, "unit": "cm"}, {"measurement": "Activity", "setting": "Zea mays [30]", "result": 1, "unit": "%"}]}]}
